Results from US6702987B1, “Bioactive porous partition members” (Dade Behring Inc., priority 1994, dated 2004).

Columns and labels:
[1] = Storage stability of agent incorporated in porous partition member and dried; assay type: physicochemical
Method: ADP is unstable in aqueous solution having a useful life of only about 4 hours.
Epinephrine is sensitive to aspirin induced defects in platelets.
The concentration of ADP solution used for incorporation into the membrane was 50 mg/ml, and that of the epinephrine solution was 10 mg/ml.
A strip of membrane was spot-coated with 1 μL of ADP or epinephrine solution. Therefore, each membrane placed in the Test Cartridge contained 50 μg of ADP or 10 μg of epinephrine. The membrane was then spot-coated with 1 μL of fibrillar Type I collagen suspension from horse tendon available from Nycomed AG.
Spot-coating involved putting spots of liquid agent on a strip of membrane. After spot-coating, the membrane was placed in a forced air drying chamber for 25 minutes for drying of the ADP or epinephrine, and formation of a collagen film on the coated areas. Once dried, an aperture was punched in the center of the spot and a membrane disk was cut from the membrane strip.

[2] = cited from earlier work

SMILES | stable when incorporated in a porous partition member ([1]; incorporated in porous partition member, dried, stored at about 4° C. under hermetically sealed conditions) | useful life in aqueous solution ([2]; aqueous solution) | stability when incorporated in a porous partition member and dried ([1]; incorporated in porous partition member and dried) | stability in solution ([2]; in solution)
Nc1ncnc2c1ncn2[C@@H]1O[C@H](COP(=O)(O)OP(=O)(O)O)[C@@H](O)[C@H]1O [ADP, adenosine 5′-diphosphate] | about one and one-half | about 4 hours | – | –
CNC[C@H](O)c1ccc(O)c(O)c1 [epinephrine] | – | – | good stability | unstable
